“And” between values parts separate entries of the source, which are not always exact repeats. Equal values may be shown once. Inconclusive results and toxic doses are left out. No stated cut-off is given here; in the data, active means T/C of 150% or more; inactive means T/C below 125%.
System: L1210 leukemia ip in BDF1 mice, survival T/C
Experiment: NCI In Vivo Anticancer Drug Screen. Data for tumor model L1210 Leukemia (intraperitoneal) in B6D2F1 (BDF1) mice
Conditions: endpoint: mean survival time, higher = longer survival
How it was run: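 In this screen, tumor-bearing mice given compound are compared to those given vehicle, and their survival values are reported as a treated-to-control quotient.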

[1] = dose: 100.0 mg/kg/injection, schedule: Q01DX001 (ip), vehicle: saline with Tween-80
[2] = dose: 200.0 mg/kg/injection, schedule: Q01DX001 (ip), vehicle: saline with Tween-80
[3] = dose: 400.0 mg/kg/injection, schedule: Q01DX001 (ip), vehicle: saline with Tween-80
[4] = dose: 400.0 mg/kg/injection, schedule: Q01DX001 (ip), vehicle: carboxymethylcellulose (CMC)
[5] = dose: 100.0 mg/kg/injection, schedule: Q01DX009 (ip), vehicle: Klucel (hydroxypropylcellulose) (HPC)
[6] = dose: 100.0 mg/kg/injection, schedule: Q04DX003 (ip), vehicle: Klucel (hydroxypropylcellulose) (HPC)
[7] = dose: 200.0 mg/kg/injection, schedule: Q01DX009 (ip), vehicle: Klucel (hydroxypropylcellulose) (HPC)
[8] = dose: 200.0 mg/kg/injection, schedule: Q04DX003 (ip), vehicle: Klucel (hydroxypropylcellulose) (HPC)
[9] = dose: 400.0 mg/kg/injection, schedule: Q04DX003 (ip), vehicle: Klucel (hydroxypropylcellulose) (HPC)
[10] = dose: 100.0 mg/kg/injection, schedule: Q01DX001 (ip), vehicle: Klucel (hydroxypropylcellulose) (HPC)
[11] = dose: 200.0 mg/kg/injection, schedule: Q01DX001 (ip), vehicle: Klucel (hydroxypropylcellulose) (HPC)
[12] = dose: 100.0 mg/kg/injection, schedule: Q04DX003 (ip), vehicle: saline with Tween-80
[13] = dose: 200.0 mg/kg/injection, schedule: Q04DX003 (ip), vehicle: saline with Tween-80
[14] = dose: 400.0 mg/kg/injection, schedule: Q04DX003 (ip), vehicle: saline with Tween-80
[15] = dose: 100.0 mg/kg/injection, schedule: Q01DX001 (ip), vehicle: carboxymethylcellulose (CMC)
[16] = dose: 200.0 mg/kg/injection, schedule: Q01DX001 (ip), vehicle: carboxymethylcellulose (CMC)
[17] = dose: 100.0 mg/kg/injection, schedule: Q01DX001 (ip), vehicle: saline
[18] = dose: 200.0 mg/kg/injection, schedule: Q01DX001 (ip), vehicle: saline
[19] = dose: 100.0 mg/kg/injection, schedule: Q04DX002 (ip), vehicle: saline with Tween-80
[20] = dose: 200.0 mg/kg/injection, schedule: Q04DX002 (ip), vehicle: saline with Tween-80
[21] = dose: 400.0 mg/kg/injection, schedule: Q04DX002 (ip), vehicle: saline with Tween-80

Measured: T/C

O=C(O)c1cc(-c2ccc(Cl)cc2)nc2c(Cl)cccc12
inactive: dose: 20.0 mg/kg/injection, schedule: Q01DX009 (ip), vehicle: Klucel (hydroxypropylcellulose) (HPC) 95 % of control | dose: 20.0 mg/kg/injection, schedule: Q04DX003 (ip), vehicle: Klucel (hydroxypropylcellulose) (HPC) 107 % of control | dose: 40.0 mg/kg/injection, schedule: Q01DX009 (ip), vehicle: Klucel (hydroxypropylcellulose) (HPC) 103 % of control | dose: 40.0 mg/kg/injection, schedule: Q04DX003 (ip), vehicle: Klucel (hydroxypropylcellulose) (HPC) 100 % of control | dose: 80.0 mg/kg/injection, schedule: Q01DX009 (ip), vehicle: Klucel (hydroxypropylcellulose) (HPC) 108 % of control | dose: 80.0 mg/kg/injection, schedule: Q04DX003 (ip), vehicle: Klucel (hydroxypropylcellulose) (HPC) 97 % of control

O=C(O)c1cccc(CCc2cccnc2)c1
inactive: [1] 98 % of control | [2] 101 % of control | [3] 93 % of control

NCCc1c[nH]c2ccc(O)cc12 (tested in a mixture with another compound)
inactive: dose: 120.0 mg/kg/injection, schedule: Q01DX009 (ip), vehicle: carboxymethylcellulose (CMC) 107 % of control | [4] 108 % of control | dose: 600.0 mg/kg/injection, schedule: Q01DX001 (ip), vehicle: carboxymethylcellulose (CMC) 108 % of control | dose: 600.0 mg/kg/injection, schedule: Q01DX009 (ip), vehicle: carboxymethylcellulose (CMC) 102 % of control | dose: 800.0 mg/kg/injection, schedule: Q01DX001 (ip), vehicle: carboxymethylcellulose (CMC) 114 % of control | dose: 800.0 mg/kg/injection, schedule: Q01DX009 (ip), vehicle: carboxymethylcellulose (CMC) 119 % of control | dose: 1000.0 mg/kg/injection, schedule: Q01DX001 (ip), vehicle: carboxymethylcellulose (CMC) 106 % of control

CC(C)N(C(=O)COc1ccc(Cl)cc1)c1ccccc1
inactive: dose: 50.0 mg/kg/injection, schedule: Q01DX009 (ip), vehicle: Klucel (hydroxypropylcellulose) (HPC) 103 % of control | [5] 104 % of control | [6] 108 % of control | [7] 92 % of control | [8] 93 % of control

CC(=O)OC1c2ccccc2C(=O)C1(OC(C)=O)c1ccccc1 (configuration not stated)
inactive: [5] 101 % of control | [6] 97 % of control | [7] 107 % of control | [8] 100 % of control | dose: 400.0 mg/kg/injection, schedule: Q01DX009 (ip), vehicle: Klucel (hydroxypropylcellulose) (HPC) 101 % of control | [9] 102 % of control

CC1(C)N=C(N)N=C(N)N1c1cccc(CC(C(=O)Nc2ccc(S(=O)(=O)F)cc2)c2ccccc2)c1 (configuration not stated)
inactive: dose: 25.0 mg/kg/injection, schedule: Q01DX001 (ip), vehicle: Klucel (hydroxypropylcellulose) (HPC) 95 % of control | dose: 50.0 mg/kg/injection, schedule: Q01DX001 (ip), vehicle: Klucel (hydroxypropylcellulose) (HPC) 95 % of control | [10] 94 % of control and 95 % of control | [11] 101 % of control

Nc1nc(=S)nc(N)[nH]1
inactive: dose: 25.0 mg/kg/injection, schedule: Q01DX009 (ip), vehicle: saline 101 % of control | dose: 50.0 mg/kg/injection, schedule: Q01DX009 (ip), vehicle: saline 103 % of control | dose: 100.0 mg/kg/injection, schedule: Q01DX009 (ip), vehicle: saline 97 % of control

O=C(c1ccccc1)c1nonc1C(=O)c1ccccc1
inactive: dose: 100.0 mg/kg/injection, schedule: Q01DX009 (ip), vehicle: saline sonified 93 % of control | [12] 97 % of control | dose: 200.0 mg/kg/injection, schedule: Q01DX009 (ip), vehicle: saline sonified 90 % of control | [13] 92 % of control | dose: 400.0 mg/kg/injection, schedule: Q01DX009 (ip), vehicle: saline sonified 93 % of control | [14] 97 % of control

Cc1ccc2c(c1)NP(=S)(c1ccccc1)N2 (configuration not stated)
inactive: [12] 103 % of control | [13] 103 % of control | [14] 100 % of control

N#Cc1cnn(C(N)=O)c1N
inactive: [6] 100 % of control | [8] 95 % of control | [9] 100 % of control

CCC(CO)(CO)[N+](=O)[O-]
inactive: [12] 95 % of control | [13] 91 % of control | [14] 91 % of control

O=C1CCC2(CCCc3c2ccc2ccccc32)O1 (configuration not stated)
inactive: dose: 50.0 mg/kg/injection, schedule: Q04DX003 (ip), vehicle: saline 97 % of control | dose: 100.0 mg/kg/injection, schedule: Q04DX003 (ip), vehicle: saline 97 % of control | dose: 200.0 mg/kg/injection, schedule: Q04DX003 (ip), vehicle: saline 90 % of control

CC(=O)CC(=O)C(F)(F)F.CC(=O)CC(=O)C(F)(F)F.CC(=O)CC(=O)C(F)(F)F.[Cr]
inactive: [15] 109 % of control | [16] 96 % of control | [4] 98 % of control

COc1ccc(N2CCNCC2)cc1
inactive: dose: 5.0 mg/kg/injection, schedule: Q01DX001 (ip), vehicle: saline 103 % of control | dose: 10.0 mg/kg/injection, schedule: Q01DX001 (ip), vehicle: saline 103 % of control | dose: 20.0 mg/kg/injection, schedule: Q01DX001 (ip), vehicle: saline 97 % of control | dose: 40.0 mg/kg/injection, schedule: Q01DX001 (ip), vehicle: saline 105 % of control

CCC(CC)C(O)(C(=O)O)C(CC)CC
inactive: [17] 95 % of control | [18] 89 % of control | dose: 400.0 mg/kg/injection, schedule: Q01DX001 (ip), vehicle: saline 97 % of control

NC(=O)N/N=C(/Cl)C(=O)NNC(N)=O
inactive: [19] 89 % of control | [20] 89 % of control | [21] 96 % of control

COc1ccccc1-n1c(O)c(N=Nc2ccc(Br)cc2)c(=O)n(-c2ccccc2OC)c1=S
inactive: [10] 103 % of control | [11] 105 % of control | dose: 400.0 mg/kg/injection, schedule: Q01DX001 (ip), vehicle: Klucel (hydroxypropylcellulose) (HPC) 92 % of control

CCN(CC)CCN(CC)C(=O)C1C(c2ccccc2)C1c1ccccc1 (configuration not stated)
inactive: dose: 25.0 mg/kg/injection, schedule: Q04DX002 (ip), vehicle: Klucel (hydroxypropylcellulose) (HPC) 102 % of control | dose: 50.0 mg/kg/injection, schedule: Q04DX002 (ip), vehicle: Klucel (hydroxypropylcellulose) (HPC) 102 % of control

CC(C)(CO)CN1CCCC1
inactive: [17] 103 % of control | [18] 100 % of control

C=CCCCCCCCCCNc1cc2c3c(c1)CCCN3CCC2
inactive: dose: 0.19 mg/kg/injection, schedule: Q01DX003 (ip), vehicle: saline 90 % of control | dose: 0.19 mg/kg/injection, schedule: Q01DX009 (ip), vehicle: saline 108 % of control | dose: 0.39 mg/kg/injection, schedule: Q01DX003 (ip), vehicle: saline 98 % of control | dose: 0.39 mg/kg/injection, schedule: Q01DX009 (ip), vehicle: saline 98 % of control | dose: 0.78 mg/kg/injection, schedule: Q01DX003 (ip), vehicle: saline 101 % of control

CC(=O)Oc1ccc(OC(C)=O)c2cc3ccccc3cc12
inactive: [15] 87 % of control | [16] 93 % of control | [4] 91 % of control

COc1ccc(OC)c(NC(=O)c2ccc(Cl)c(Cl)c2)c1
inactive: [1] 106 % of control | dose: 100.0 mg/kg/injection, schedule: Q01DX009 (ip), vehicle: saline with Tween-80 93 % of control and 98 % of control | [19] 97 % of control and 99 % of control | [12] 105 % of control | [2] 101 % of control | dose: 200.0 mg/kg/injection, schedule: Q01DX009 (ip), vehicle: saline with Tween-80 97 % of control and 102 % of control | [20] 108 % of control and 89 % of control | [13] 108 % of control | [3] 108 % of control | dose: 400.0 mg/kg/injection, schedule: Q01DX009 (ip), vehicle: saline with Tween-80 111 % of control | [21] 104 % of control and 91 % of control | [14] 89 % of control

From PubChem BioAssay AID248 (DTP/NCI, 2004)
